In one assay the test system is DENV-2/NGC. Put plainly: Dengue replication (plaque) assay in VERO cells. Type of assay: cell-based, Dengue virus. Here is the method:
1×10^6 Vero E6 cells were plated per well into a 6-wells plate and incubated overnight at 37° C. Next day, the DENV-2/NGC virus stock was diluted to 10^4 TICD50/ml, 10^3 TICD50/ml, 10^2 TICD50/ml and 1 ml of the respective virus dilutions was added to each well. Wells contained approximately 80% confluent monolayers of Vero cells. After an incubation period of 1 hour at 37° C., cells were washed twice with medium (DMEM) and medium containing 2% methyl cellulose was added to the wells. To this medium C16-KAK-C16 10 uM was added (W) in DMSO, or an equivalent amount of DMSO (0.05%) was added (W/O). Plate was incubated at 37° C. for two days. Methyl cellulose overlays were removed and cells were fixed with absolute ethanol. Cells were subsequently incubated with specific DENY monoclonal antibody for 1 hour at 37° C., followed by incubation with HRPO-labeled rabbit-anti mouse conjugate. Positive plaques were counted after incubation with AEC substrate chromogen.
The experiment was performed as described in the legend of FIG. 8 at a viral dose of 10^3 TICD50/ml in all plates.
C16-KAK-C16 was subsequently tested in a standard Dengue replication (plaque) assay in VERO cells (FIG. 8). […] In a separate experiment this was confirmed with a constant intermediate viral load of and different concentrations of C16-KAK-C16 (FIG. 9)

Assay [1] concerns the target T1, Dengue NS3-NS2B peptidase (Dengue virus type 2, UniProt P14340).
T1 construct: The active site of the dengue protease is in the N-terminal part of NS3
Nature of the assay: Dengue NS3-NS2B peptidase hydrolysis of Abz-AKRRSQ-EDDnp. In kind it is biochemical. Particulars: 50 mM Tris-HCl pH 9.0, FIG. 5. As to the method: FIG. 5A, FIG. 5B and FIG. 5C show Dengue NS3-NS2B peptidase hydrolysis of Abz-AKRRSQ-EDDnp (SEQ ID NO:1) in 50 mM Tris-HCl pH 9.0. FIG. 5A Inhibitors: (◯) C16-KAAK-C16 (SEQ ID NO:42), (▪)C16-KAK-C16, (▴)C16-KGGK-C16(SEQ ID NO:41). FIG. 5B Substrates: (◯) Abz AKRRSQ-EDDnp (SEQ ID NO:1) and (●) Suc AAPF-MCA with different concentrations of C16-KGGK-C16 (SEQ ID NO:41). FIG. 5C Followed in time at different C16-KGGK-C16 (SEQ ID NO:41) concentrations.
FIG. 6A and FIG. 6B show Dengue NS3-NS2B peptidase hydrolysis of Abz AKRRSQ-EDDnp (SEQ ID NO:1) in the presence of C16-KK-C16 (KR), C16-KAK-C16 (KAK), C16-KAAK-C16 (KAAK; (SEQ ID NO:42)), C16-KAAAAK-C16 (KAAAAK; (SEQ ID NO:53)), C16-KGK-C16 (KOK), C16-KGGK-C16 (KOOK; (SEQ ID NO:41)), and C16-KGGGK-C16 (KGGGK; (SEQ ID NO:40)). “◯” means enzyme activity without inhibitor. FIG. 6A E+K means that the inhibitor+enzyme were pre-incubated for 0, 15 and 30 min and then the substrate was added. FIG. 6B K means that the inhibitor was pre-incubated for 0, 15 and 30 min and then the enzyme and substrate were added.
The best substrate for dengue protease is Abz-AKRR↓SQ-EDDnp (SEQ ID NO:1) [Gouvea et al., 2007]. […] Geminoids with either G or A are inhibitors of Dengue protease, but which is the better inhibitor does depend on the nature of the substrates (compare FIG. 5a and Table 1). […]

Residues, ends and D or L forms follow the SMILES beside them.

T1 sequence (P14340 1476-1653): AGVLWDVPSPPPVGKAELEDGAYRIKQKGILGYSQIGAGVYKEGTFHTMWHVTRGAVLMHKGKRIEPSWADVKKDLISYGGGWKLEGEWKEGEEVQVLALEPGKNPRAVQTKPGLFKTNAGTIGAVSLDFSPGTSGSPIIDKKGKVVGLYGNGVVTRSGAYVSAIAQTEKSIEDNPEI

For `CCCCCCCCCCCCCCCCNC(=O)[C@H](CCCCN)NC(=O)[C@H](C)NC(=O)[C@H](CCCCN)NC(=O)CCCCCCCCCCCCCCC` [C16-KAK-C16], the “inhibition of plaque formation” value in the assay with DENV-2/NGC (10 uM, Vero E6 cells, DENV-2/NGC 10^2-10^4 TICD50/ml, two days, depending on the viral load) is reported as “up to 90%”. The “virus replication (in words)” value with DENV-2/NGC (VERO cells, DENV-2/NGC) was “significant reduction of virus replication”.

For `CCCCCCCCCCCCCCCCNC(=O)[C@H](CCCCN)NC(=O)CNC(=O)CNC(=O)[C@H](CCCCN)NC(=O)CCCCCCCCCCCCCCC` [C16-KGGK-C16, C15H31CO-KGGK-NH—C16H33] (HELM PEPTIDE1{[CCCCCCCCCCCCCCCC(=O)[*:2]].K.G.G.K.[CCCCCCCCCCCCCCCCN[*:1]]}$$$$V2.0), the “inhibition of Dengue protease with substrate Abz-AKRRSQ-EDDnp (in words)” value in assay [1] is recorded as “does not depend on the choice of substrate”.
